Experimental data: patent publication US11667606B2, “Thyromimetics” (Autobahn Therapeutics, Inc., priority 2019, dated 2023)
pEC50: −log10 of the molar value.

What was measured:
TRβ = molecular target: T1, TRβ (Homo sapiens, UniProt P10828); experiment: Thyroid-hormone reporter-gene assay, TRβ (Gal4 DBD hybrid, luciferase, HEK293); assay type: cell-based; settings: for pEC50: reporter cells derived from HEK293, 24 hr incubation, luciferase readout; for T3-SI, selectivity index (SI) calculated as EC50 (TRα)/EC50 (TRβ): TRβ over TRα selectivity from reporter-gene EC50 values
T1 construct: expressed in transfected cells; host or cells: HEK293
T1 sequence (P10828 217-461 limits assumed): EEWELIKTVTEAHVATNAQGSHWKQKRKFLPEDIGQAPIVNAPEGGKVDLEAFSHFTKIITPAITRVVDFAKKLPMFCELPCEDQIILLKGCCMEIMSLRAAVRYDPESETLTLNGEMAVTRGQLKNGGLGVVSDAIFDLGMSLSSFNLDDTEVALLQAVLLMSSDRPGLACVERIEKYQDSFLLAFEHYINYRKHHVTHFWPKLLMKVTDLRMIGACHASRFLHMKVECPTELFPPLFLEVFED
Description: (§1) Compounds were tested for thyroid-hormone receptor activity using TR reporter-gene assays. Reporter cells used in the assays express a TR-receptor hybrid (either TRα or TRβ) in which the native N-terminal DNA binding domain (DBD) has been replaced with that of the yeast Gal4 DBD. The reporter gene, firefly luciferase, is functionally linked to the Gal4 upstream activation sequence (UAS). Both cell lines were derived from human embryonic kidney (HEK293).
(§2) A suspension of reporter cells was prepared in cell recovery medium containing 10% charcoal-stripped FBS, and dispensed into assay plates. The plates were pre-incubated for 6 hours in a cell culture incubator (37° C./5% CO2/85% humidity).
(§3) These intermediate stocks were subsequently diluted directly into compound screening medium containing 10% charcoal-stripped FBS to generate “2×-concentration” treatment media (containing 0.2, 0.4 or 0.8% DMSO).
(§4) At the end of the pre-incubation period, culture media were discarded from the assay plates, and all wells received 100 μl of compound screening medium. 100 μl of each of the previously prepared “2×-concentration” treatment media were dispensed into duplicate assay wells, thereby achieving the desired final treatment concentrations. The final concentration of DMSO in all assay wells was 0.1, 0.2 or 0.4%. Assay plates were incubated for 24 hr in a cell culture incubator (37° C./5% CO2/85% humidity).
(§5) At the 24 h assay endpoint, treatment media were discarded and […] of luciferase detection reagent was added. Relative luminometer units (RLUs) were quantified from each assay well.

TRα = molecular target: T2, TRα (Homo sapiens, UniProt P10827); experiment: Thyroid-hormone reporter-gene assay, TRα (Gal4 DBD hybrid, luciferase, HEK293); assay type: cell-based; settings: reporter cells derived from HEK293, 24 hr incubation, luciferase readout
T2 construct: expressed in transfected cells; host or cells: HEK293
T2 sequence (P10827 128-410 isoform P10827-2 limits assumed): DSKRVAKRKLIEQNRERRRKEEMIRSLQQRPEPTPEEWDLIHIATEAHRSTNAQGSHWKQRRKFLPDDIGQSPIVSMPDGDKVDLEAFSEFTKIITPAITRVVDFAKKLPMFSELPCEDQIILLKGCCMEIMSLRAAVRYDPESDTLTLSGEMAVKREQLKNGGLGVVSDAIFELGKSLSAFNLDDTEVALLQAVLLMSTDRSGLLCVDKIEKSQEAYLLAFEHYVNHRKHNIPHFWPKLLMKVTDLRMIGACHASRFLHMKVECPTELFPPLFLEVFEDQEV
Description: as §1, §2, §3, §4, §5

Row | SMILES | pEC50 (TRβ) | T3-SI, selectivity index (SI) calculated as EC50 (TRα)/EC50 (TRβ) (TRβ) | pEC50 (TRα)
1 | O=C(O)COc1cc(Cl)c(Cc2ccc(O)c(-c3ccc(F)c(C(F)(F)F)c3)c2)c(Cl)c1 [Compound 48, 2-(3,5-dichloro-4-((4′-fluoro-6-hydroxy-3′-(trifluoromethyl)-[1,1′-biphenyl]-3-yl)methyl)phenoxy)acetic acid] | < 6.00 | – | –
2 | O=C(O)COc1cc(Cl)c(Cc2ccc(O)c(C3CCCc4cc(F)ccc43)c2)c(Cl)c1 (centres unmarked) [Compound 111, 2-(3,5-dichloro-4-(3-(6-fluoro-1,2,3,4-tetrahydronaphthalen-1-yl)-4-hydroxybenzyl)phenoxy)acetic Acid] | 6.00 to 7.00 | ++ (3X < T3-SI ≤ 30X) | 6.00 to 7.00
3 | CCc1cccc(-c2cc(Cc3c(Cl)cc(OCC(=O)O)cc3Cl)ccc2O)c1 [Compound 3, 2-(3,5-dichloro-4-((3′-ethyl-6-hydroxy-[1,1′-biphenyl]-3-yl)methyl)phenoxy)acetic Acid] | 6.00 to 7.00 | +++ (T3-SI > 30X) | < 6.00
4 | Cc1cc(OCC(=O)O)cc(Br)c1Cc1ccc(O)c(C(C)c2ccc(F)cc2)c1 (centres unmarked) [Compound 131, 2-(3-bromo-4-(3-(1-(4-fluorophenyl)ethyl)-4-hydroxybenzyl)-5-methylphenoxy)acetic Acid] | > 8.00 | ++ (3X < T3-SI ≤ 30X) | 7.00 to 8.00
5 | O=C(O)COc1cc(Cl)c(Cc2ccc(O)c(Cc3ccc(CC(F)(F)F)cc3)c2)c(Cl)c1 [Compound 96, 2-(3,5-dichloro-4-(4-hydroxy-3-(4-(2,2,2-trifluoroethyl)benzyl)benzyl)phenoxy)acetic Acid] | < 6.00 | – | –
6 | C[C@H](c1ccc(F)cc1)c1cc(Cc2c(Cl)cc(OCC(=O)O)cc2Cl)ccc1O (single isomer, unassigned) [Compound 75] | > 8.00 | ++ (3X < T3-SI ≤ 30X) | 7.00 to 8.00
7 | O=C(O)COc1cc(Cl)c(Cc2ccc(O)c(CCc3ccc(F)cc3)c2)c(Cl)c1 [Compound 135, 2-(3,5-dichloro-4-(3-(4-fluorophenethyl)-4-hydroxybenzyl)phenoxy)acetic Acid] | < 6.00 | ++ (3X < T3-SI ≤ 30X) | < 6.00
8 | O=C(O)COc1cc(Cl)c(Cc2ccc(O)c(Cc3cccs3)c2)c(Cl)c1 [Compound 123, 2-(3,5-dichloro-4-(4-hydroxy-3-(thiophen-2-ylmethyl)benzyl)phenoxy) acetic Acid] | 6.00 to 7.00 | ++ (3X < T3-SI ≤ 30X) | < 6.00
9 | CC(=O)c1cccc(-c2cc(Cc3c(Cl)cc(OCC(=O)O)cc3Cl)ccc2O)c1 [Compound 11, 2-(4-((3′-acetyl-6-hydroxy-[1,1′-biphenyl]-3-yl)methyl)-3,5-dichlorophenoxy)acetic Acid] | < 6.00 | – | < 6.00
10 | CCc1cccc(-c2cc(Cc3c(C)cc(OCC(=O)O)cc3Cl)ccc2O)c1 [Compound 60, 2-(3-chloro-4-((3′-ethyl-6-hydroxy-[1,1′-biphenyl]-3-yl)methyl)-5-methylphenoxy)acetic Acid] | 6.00 to 7.00 | +++ (T3-SI > 30X) | < 6.00
11 | O=C(O)COc1cc(Cl)c(Cc2ccc(O)c(C(c3ccc(F)cc3)C3CCC3)c2)c(Cl)c1 (centres unmarked) [Compound 109, 2-(3,5-dichloro-4-(3-(cyclobutyl(4-fluorophenyl)methyl)-4-hydroxybenzyl)phenoxy)acetic Acid] | 6.00 to 7.00 | +++ (T3-SI > 30X) | < 6.00
12 | Cc1cc(OCC(=O)O)cc(Cl)c1Cc1ccc(O)c(-c2cccc(OC(F)F)c2)c1 [Compound 62, 2-(3-chloro-4-((3′-(difluoromethoxy)-6-hydroxy-[1,1′-biphenyl]-3-yl)methyl)-5-methylphenoxy)acetic Acid] | 6.00 to 7.00 | ++ (3X < T3-SI ≤ 30X) | < 6.00
13 | Cc1cccc(-c2cc(Cc3c(Cl)cc(OCC(=O)O)cc3Cl)ccc2O)c1 [Compound 17, 2-(3,5-dichloro-4-((6-hydroxy-3′-methyl-[1,1′-biphenyl]-3-yl)methyl)phenoxy)acetic Acid] | 6.00 to 7.00 | ++ (3X < T3-SI ≤ 30X) | < 6.00
14 | O=C(O)COc1cc(Cl)c(Cc2ccc(O)c(-c3cccc(OC(F)F)c3)c2)c(Cl)c1 [Compound 5, 2-(3,5-dichloro-4-((3′-(difluoromethoxy)-6-hydroxy-[1,1′-biphenyl]-3-yl)methyl)phenoxy)acetic Acid] | 6.00 to 7.00 | +++ (T3-SI > 30X) | < 6.00
15 | O=C(O)COc1cc(Cl)c(Cc2ccc(O)c(-c3cccc(C(F)(F)F)c3)c2)c(Cl)c1 [Compound 1, 2-(3,5-dichloro-4-((6-hydroxy-3′-(trifluoromethyl)-[1,1′-biphenyl]-3-yl)methyl)phenoxy)acetic Acid] | 6.00 to 7.00 | ++ (3X < T3-SI ≤ 30X) | 6.00 to 7.00
16 | CC(=O)Nc1cccc(-c2cc(Cc3c(Cl)cc(OCC(=O)O)cc3Cl)ccc2O)c1 [Compound 9, 2-(4-((3′-acetamido-6-hydroxy-[1,1′-biphenyl]-3-yl)methyl)-3,5-dichlorophenoxy)acetic Acid] | < 6.00 | – | –
17 | Cc1ccc(Cc2cc(Cc3c(Cl)cc(OCC(=O)O)cc3Cl)ccc2O)cc1 [Compound 92, 2-(3,5-dichloro-4-(4-hydroxy-3-(4-methylbenzyl)benzyl)phenoxy)acetic Acid] | < 6.00 | – | –
18 | O=C(O)COc1cc(Cl)c(Cc2ccc(O)c(-c3cccc(CO)c3)c2)c(Cl)c1 [Compound 8, 2-(3,5-dichloro-4-((6-hydroxy-3′-(hydroxymethyl)-[1,1′-biphenyl]-3-yl)methyl)phenoxy)acetic Acid] | < 6.00 | – | –
19 | Cc1ccoc1-c1cc(Cc2c(Cl)cc(OCC(=O)O)cc2Cl)ccc1O [Compound 44, 2-(3,5-dichloro-4-(4-hydroxy-3-(3-methylfuran-2-yl)benzyl)phenoxy)acetic Acid] | < 6.00 | – | –
20 | CS(=O)(=O)c1cccc(-c2cc(Cc3c(Cl)cc(OCC(=O)O)cc3Cl)ccc2O)c1 [Compound 14, 2-(3,5-dichloro-4-((6-hydroxy-3′-(methylsulfonyl)-[1,1′-biphenyl]-3-yl)methyl)phenoxy)acetic Acid] | < 6.00 | – | –
21 | CCOC(=O)c1cccc(-c2cc(Cc3c(Cl)cc(OCC(=O)O)cc3Cl)ccc2O)c1 [Compound 6, 2-(3,5-dichloro-4-((3′-(ethoxycarbonyl)-6-hydroxy-[1,1′-biphenyl]-3-yl)methyl)phenoxy)acetic Acid] | < 6.00 | – | –
22 | O=C(O)COc1cc(Cl)c(Cc2ccc(O)c(-c3cc(F)cc(C(F)(F)F)c3)c2)c(Cl)c1 [Compound 50, 2-(3,5-dichloro-4-((3′-fluoro-6-hydroxy-5′-(trifluoromethyl)-[1,1′-biphenyl]-3-yl)methyl)phenoxy)acetic Acid] | 6.00 to 7.00 | – | –
23 | O=C(O)COc1cc(Cl)c(Cc2ccc(O)c(Cc3cncnc3)c2)c(Cl)c1 [Compound 94, 2-(3,5-dichloro-4-(4-hydroxy-3-(pyrimidin-5-ylmethyl)benzyl)phenoxy) acetic Acid] | < 6.00 | – | –
24 | N#Cc1ccc(Cc2cc(Cc3c(Cl)cc(OCC(=O)O)cc3Cl)ccc2O)cc1 [Compound 80, 2-(3,5-dichloro-4-(3-(4-cyanobenzyl)-4-hydroxybenzyl)phenoxy)acetic Acid] | < 6.00 | – | –
25 | COCc1cccc(-c2cc(Cc3c(Cl)cc(OCC(=O)O)cc3Cl)ccc2O)c1 [Compound 15, 2-(3,5-dichloro-4-((6-hydroxy-3′-(methoxymethyl)-[1,1′-biphenyl]-3-yl)methyl)phenoxy)acetic Acid] | < 6.00 | – | –
26 | O=C(O)COc1cc(Cl)c(Cc2ccc(O)c(-c3ccc(F)c(OC(F)F)c3)c2)c(Cl)c1 [Compound 55, 2-(3,5-dichloro-4-((3′-(difluoromethoxy)-4′-fluoro-6-hydroxy-[1,1′-biphenyl]-3-yl)methyl)phenoxy)acetic Acid] | < 6.00 | – | –
27 | O=C(O)COc1cc(Cl)c(Cc2ccc(O)c(-c3cccc(C(F)(F)C(F)(F)F)c3)c2)c(Cl)c1 [Compound 28, 2-(3,5-dichloro-4-((6-hydroxy-3′-(perfluoroethyl)-[1,1′-biphenyl]-3-yl)methyl)phenoxy)acetic Acid] | < 6.00 | – | –
28 | O=C(O)COc1cc(Cl)c(Cc2ccc(O)c(-c3ccc(C(F)(F)F)s3)c2)c(Cl)c1 [Compound 37] | < 6.00 | – | –
